Measurements: ChEMBL document CHEMBL4699438, “Toward the discovery and development of effective modulators of α-synuclein amyloid aggregation” (Eur J Med Chem, 2019)

Experiments:
[1] = molecular target: T1, Alpha-synuclein (Homo sapiens, UniProt P37840); assay: Inhibition of wild type alpha-synuclein aggregation (unknown origin) expressed in Escherichia coli BL21 cells incubated for 30 days by thioflavin T based fluorescence assay
[2] = molecular target: T1, Alpha-synuclein; assay: Inhibition of human alpha-synuclein aggregation expressed in Escherichia coli BL21(DE3) cells assessed as percent of un-inhibition measured at 16 hrs by thioflavin T based fluorescence assay relative to control; set-up: concentration or dose not given beside the values
[3] = molecular target: T1, Alpha-synuclein; assay: Inhibition of alpha-synuclein aggregation (unknown origin) expressed in Escherichia coli BL21(DE3) cells assessed as HFIP-induced protein aggregation measured after 16 to 18 hrs by thioflavin T based fluorescence assay relative to control; set-up: scale not given: the % may be the effect or the level left; conditions: time hrs 16-18
[4] = molecular target: T1, Alpha-synuclein; assay: Inhibition of alpha-synuclein aggregation (unknown origin) expressed in Escherichia coli BL21(DE3) cells; conditions: concentration not given here
[5] = molecular target: T1, Alpha-synuclein; assay: Inhibition of human alpha-synuclein filament formation expressed in Escherichia coli BL21(DE3) cells incubated for 72 hrs by thioflavin S based fluorescence assay
[6] = molecular target: T1, Alpha-synuclein; assay: Inhibition of alpha-synuclein fibril formation (unknown origin) incubated for 24 hrs to 7 days by thioflavin S based fluorescence assay
[7] = molecular target: T1, Alpha-synuclein; assay: Inhibition of alpha-synuclein aggregation (unknown origin) incubated for 8 days by thioflavin S based fluorescence assay
[8] = molecular target: T1, Alpha-synuclein; assay: Inhibition of alpha-synuclein fibril formation (unknown origin) incubated for 6 days by thioflavin S based fluorescence assay
[9] = Elimination half-life in human; type: ADME; conditions: read-out: beta t1/2 (converted)
[10] = molecular target: T1, Alpha-synuclein; assay: Inhibition of wild type human alpha-synuclein fibrillization expressed in Escherichia coli BL21(DE3)pLysS by thioflavin-T based fluorescence assay
[11] = molecular target: Amyloid-beta precursor protein (Homo sapiens, UniProt P05067); assay: Inhibition of amyloid beta (1 to 40) (unknown origin) incubated for 24 hrs to 7 days by thioflavin S based fluorescence assay
Chain of Amyloid-beta precursor protein (P05067 whole entry): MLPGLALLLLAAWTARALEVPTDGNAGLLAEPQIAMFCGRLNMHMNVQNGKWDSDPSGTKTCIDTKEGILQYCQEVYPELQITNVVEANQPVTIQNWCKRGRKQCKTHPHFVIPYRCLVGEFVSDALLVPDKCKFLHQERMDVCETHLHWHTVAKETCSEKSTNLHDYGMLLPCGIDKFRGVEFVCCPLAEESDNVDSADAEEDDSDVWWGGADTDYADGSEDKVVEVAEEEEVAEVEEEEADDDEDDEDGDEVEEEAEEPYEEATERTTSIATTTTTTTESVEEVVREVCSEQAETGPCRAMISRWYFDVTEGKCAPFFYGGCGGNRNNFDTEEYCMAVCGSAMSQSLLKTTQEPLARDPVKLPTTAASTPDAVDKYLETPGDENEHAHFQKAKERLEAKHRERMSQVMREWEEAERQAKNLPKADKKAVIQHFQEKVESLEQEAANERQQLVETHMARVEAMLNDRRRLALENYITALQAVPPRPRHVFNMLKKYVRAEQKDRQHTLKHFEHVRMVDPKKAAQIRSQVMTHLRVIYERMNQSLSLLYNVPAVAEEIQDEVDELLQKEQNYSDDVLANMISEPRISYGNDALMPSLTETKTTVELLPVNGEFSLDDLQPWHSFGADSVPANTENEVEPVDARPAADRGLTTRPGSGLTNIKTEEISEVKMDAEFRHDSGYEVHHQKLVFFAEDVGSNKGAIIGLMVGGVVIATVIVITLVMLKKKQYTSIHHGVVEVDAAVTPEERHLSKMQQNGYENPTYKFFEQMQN

COc1cc(/C=C/c2cc(/C=C/c3ccc(O)c(OC)c3)n(-c3cccc([N+](=O)[O-])c3)n2)ccc1O
IC50 [1]: 89.1 µM

CCC(=O)N[C@@H](Cc1c[nH]c2ccccc12)C(=O)N[C@H](C(=O)N1CCC[C@@H]1C(=O)NCC(=O)N[C@@H](CCCCN)C(=O)N[C@@H](Cc1c[nH]c2ccccc12)C(=O)N[C@H](C(=O)NCC(N)=O)[C@@H](C)O)[C@@H](C)CC
Remaining aggregation (% of control) [2]: 69%
Activity [3]: 37%
inhibition [4]: 50%

CC[C@H](C)[C@H](NC(=O)[C@H](CO)NC(=O)[C@H](Cc1c[nH]c2ccccc12)NC(=O)[C@@H](NC(=O)[C@H](CC(C)C)NC(=O)[C@H](CCCCN)NC(=O)[C@@H](N)CCCCN)[C@@H](C)O)C(=O)N1CCC[C@@H]1C(=O)NCC(=O)N[C@@H](CCCCN)C(=O)N[C@@H](CCCCN)C(=O)N[C@@H](Cc1c[nH]c2ccccc12)C(=O)N[C@H](C(=O)N[C@H](C(=O)N[C@@H](CO)C(=O)N[C@@H](C)C(=O)O)C(C)C)[C@@H](C)O
Remaining aggregation (% of control) [2]: 20%

CC[C@H](C)[C@H](NC(=O)[C@H](Cc1c[nH]c2ccccc12)NC(=O)[C@H](CCCCN)NC(=O)CN)C(=O)N[C@H](C(=O)N[C@H](C(=O)N[C@@H](CO)C(=O)N[C@H](C(=O)N1CCC[C@@H]1C(=O)N1CCC[C@H]1C(=O)N[C@@H](CCCCN)C(=O)N[C@@H](CCCCN)C(=O)N[C@@H](CC(C)C)C(=O)N[C@H](C(=O)N[C@H](C(=O)N[C@@H](Cc1c[nH]c2ccccc12)C(=O)N[C@H](C(=O)N1CCC[C@@H]1C(=O)O)[C@@H](C)CC)C(C)C)[C@@H](C)O)[C@@H](C)CC)C(C)C)[C@@H](C)O
Activity [3]: 34%
inhibition [4]: 65%

CC[C@H](C)[C@H](NC(=O)[C@H](Cc1c[nH]c2ccccc12)NC(=O)[C@H](CCCCN)NC(=O)CNC(=O)[C@H]1CCCN1C(=O)[C@@H](NC(=O)[C@H](Cc1c[nH]c2ccccc12)NC(=O)[C@@H](NC(=O)[C@@H](NC(=O)[C@H](CC(C)C)NC(=O)[C@H](CCCCN)NC(=O)[C@@H](N)CCCCN)[C@@H](C)O)C(C)C)[C@@H](C)CC)C(=O)N[C@H](C(=O)N[C@H](C(=O)N[C@@H](CO)C(=O)N[C@@H](C)C(=O)O)C(C)C)[C@@H](C)O
Remaining aggregation (% of control) [2]: 19%
Activity [3]: 27%
inhibition [4]: 75%

CC[C@H](C)[C@H](NC(=O)[C@H](Cc1c[nH]c2ccccc12)NC(=O)[C@H](CCCCN)NC(=O)CNC(=O)[C@H]1CCCN1C(=O)[C@@H](NC(=O)[C@H](Cc1c[nH]c2ccccc12)NC(=O)[C@@H](NC(=O)[C@@H](NC(=O)[C@H](CC(C)C)NC(=O)[C@H](CS)NC(=O)[C@@H](N)CCCCN)[C@@H](C)O)C(C)C)[C@@H](C)CC)C(=O)N[C@H](C(=O)N[C@H](C(=O)N[C@@H](CS)C(=O)N[C@@H](C)C(=O)O)C(C)C)[C@@H](C)O
Activity [3]: 49%
inhibition [4]: 50%

CC[C@H](C)[C@H](NC(=O)[C@H](Cc1ccc(O)cc1)NC(=O)[C@H](CCCCN)NC(=O)CNC(=O)[C@H]1CCCN1C(=O)[C@@H](NC(=O)[C@H](Cc1ccc(O)cc1)NC(=O)[C@@H](NC(=O)[C@@H](NC(=O)[C@H](CC(C)C)NC(=O)[C@H](CCCCN)NC(=O)[C@@H](N)CCCCN)[C@@H](C)O)C(C)C)[C@@H](C)CC)C(=O)N[C@H](C(=O)N[C@H](C(=O)N[C@@H](CO)C(=O)N[C@@H](C)C(=O)O)C(C)C)[C@@H](C)O
Remaining aggregation (% of control) [2]: 18%

O=C(O[C@@H]1Cc2c(O)cc(O)cc2O[C@H]1c1ccc(O)c(O)c1)c1cc(O)c(O)c(O)c1 [(-)-CATECHINGALLATE]
IC50 [5]: 21.4 µM

Oc1cc(O)c2c(c1)O[C@H](c1ccc(O)c(O)c1)[C@H](O)C2 [(-)-EPICATECHIN]
IC50 [6]: 0.8 µM
IC50 [5]: 29.9 µM

C[C@]12CCC(=O)C=C1CC[C@@H]1[C@@H]2CC[C@]2(C)C(=O)CC[C@@H]12 [ANDROSTENEDIONE]
IC50 [7]: 85.9 µM

O=c1cc(-c2ccccc2)oc2cc(O)c(O)c(O)c12 [BAICALEIN]
IC50 [5]: 8.2 µM

CC(C)C[C@H]1C(=O)N2CCC[C@H]2[C@]2(O)O[C@](NC(=O)[C@@H]3C=C4c5cccc6[nH]c(Br)c(c56)C[C@H]4N(C)C3)(C(C)C)C(=O)N12 [BROMOCRIPTINE]
IC50 [8]: 24.7 µM

COc1cc(/C=C/c2cc(/C=C/c3ccc(O)c(OC)c3)[nH]n2)ccc1O [CURCUMIN PYRAZOLE]
IC50 [1]: 127 µM

Oc1cc(O)c2cc(O)c(-c3ccc(O)c(O)c3)[o+]c2c1 [CYANIDIN CHLORIDE]
IC50 [5]: 10.3 µM

Oc1cc(O)c2cc(O)c(-c3cc(O)c(O)c(O)c3)[o+]c2c1 [DELPHINIDIN CHLORIDE]
IC50 [5]: 6.5 µM

NCCc1ccc(O)c(O)c1 [DOPAMINE]
IC50 [8]: 0.53 µM
IC50 [5]: 7.1 µM

O=C(O[C@@H]1Cc2c(O)cc(O)cc2O[C@@H]1c1ccc(O)c(O)c1)c1cc(O)c(O)c(O)c1 [EPICATECHIN GALLATE]
half-life [9]: 3.4 h
IC50 [5]: 9.8 µM

Oc1cc(O)c2c(c1)O[C@H](c1cc(O)c(O)c(O)c1)[C@H](O)C2 [EPIGALLOCATECHIN]
IC50 [5]: 10.6 µM

C[C@]12CC[C@@H]3c4ccc(O)cc4CC[C@H]3[C@@H]1CC[C@@H]2O [ESTRADIOL]
IC50 [7]: 60 µM

C[C@]12CC[C@@H]3c4ccc(O)cc4CC[C@H]3[C@@H]1C[C@@H](O)[C@@H]2O [ESTRIOL]
IC50 [7]: 20.1 µM

C[C@]12CC[C@@H]3c4ccc(O)cc4CC[C@H]3[C@@H]1CCC2=O [ESTRONE]
IC50 [7]: 93.1 µM

COc1cc(/C=C/C(=O)O)ccc1O [FERULATE]
IC50 [6]: 0.75 µM

O=C(O[C@@H]1Cc2c(O)cc(O)cc2O[C@H]1c1cc(O)c(O)c(O)c1)c1cc(O)c(O)c(O)c1 [GALLOCATECHIN GALLATE]
IC50 [5]: 3.6 µM

Oc1cc(O)c2c(c1)O[C@H](c1cc(O)c(O)c(O)c1)[C@@H](O)C2 [GALLOCATECHIN]
IC50 [5]: 8.9 µM

Cc1cc(O)c2c(=O)c3c(O)cc(O)c4c5c(O)cc(O)c6c(=O)c7c(O)cc(C)c8c1c2c(c34)c(c78)c65 [HYPERICIN]
IC50 [5]: 7.5 µM

O=c1cc(-c2ccc(O)c(O)c2)oc2cc(O)cc(O)c12 [LUTEOLIN]
IC50 [5]: 28 µM

CC1=CC(=O)c2ccccc2C1=O [MENADIONE]
IC50 [10]: 15 µM

CC(C)=CCC/C(C)=C/CC/C(C)=C/CC/C(C)=C/CC1=C(C)C(=O)c2ccccc2C1=O [MENATETRENONE]
IC50 [10]: 15 µM

O=c1c(O)c(-c2cc(O)c(O)c(O)c2)oc2cc(O)cc(O)c12 [MYRICETIN]
IC50 [6]: 0.22 µM
IC50 [5]: 13.3 µM

O=C1C=CC(=O)c2ccccc21 [NAPHTHOQUINONE]
IC50 [10]: 15 µM

CC(Cc1ccc(O)c(O)c1)C(C)Cc1ccc(O)c(O)c1 (configuration not stated) [NORDIHYDROGUAIARETIC ACID]
IC50 [7]: 0.21 µM
IC50 [6]: 0.22 µM

CCCN1C[C@H](CSC)C[C@@H]2c3cccc4[nH]cc(c34)C[C@H]21 [PERGOLIDE]
IC50 [8]: 7.9 µM

CC1=C(C/C=C(\C)CCC[C@H](C)CCC[C@H](C)CCCC(C)C)C(=O)c2ccccc2C1=O [PHYTONADIONE]
IC50 [10]: 15 µM

Oc1cc(O)c2c(c1)O[C@H](c1ccc(O)c(O)c1)[C@H](O)[C@H]2c1c(O)cc(O)c2c1O[C@H](c1ccc(O)c(O)c1)[C@@H](O)C2 [PROCYANIDIN B1]
IC50 [5]: 7.3 µM

Oc1cc(O)c2c(c1)O[C@H](c1ccc(O)c(O)c1)[C@H](O)[C@H]2c1c(O)cc(O)c2c1O[C@H](c1ccc(O)c(O)c1)[C@H](O)C2 [PROCYANIDIN B2]
IC50 [5]: 4.3 µM

O=c1c(O)cccc2cc(O)c(O)c(O)c12 [PURPUROGALLIN]
IC50 [5]: 12.9 µM

O=c1c(O)c(-c2ccc(O)c(O)c2)oc2cc(O)cc(O)c12 [QUERCETIN]
IC50 [5]: 20 µM

CC1=C(/C=C/C(C)=C/C=C/C(C)=C/C=O)C(C)(C)CCC1 [RETINAL]
IC50 [6]: 0.19 µM
IC50 [11]: 0.18 µM

CC1=C(/C=C/C(C)=C/C=C/C(C)=C/CO)C(C)(C)CCC1 [RETINOL]
IC50 [6]: 0.19 µM
IC50 [11]: 0.18 µM

CO[C@H]1/C=C/O[C@@]2(C)Oc3c(C)c(O)c4c(O)c(c(/C=N/N5CCN(C)CC5)c(O)c4c3C2=O)NC(=O)/C(C)=C\C=C\[C@H](C)[C@H](O)[C@@H](C)[C@@H](O)[C@@H](C)[C@H](OC(C)=O)[C@@H]1C [RIFAMPIN]
IC50 [6]: 7.1 µM
IC50 [5]: 46.2 µM

O=C(/C=C/c1ccc(O)c(O)c1)O[C@H](Cc1ccc(O)c(O)c1)C(=O)O [ROSMARINIC ACID]
IC50 [6]: 0.21 µM

C#CCN(C)[C@H](C)Cc1ccccc1 [SELEGILINE]
IC50 [8]: 0.27 µM

C[C@]12CC[C@H]3[C@@H](CCC4=CC(=O)CC[C@@]43C)[C@@H]1CC[C@@H]2O [TESTOSTERONE]
IC50 [7]: 96.8 µM

CN(C)[C@@H]1C(O)=C(C(N)=O)C(=O)[C@@]2(O)C(O)=C3C(=O)c4c(O)cccc4[C@@](C)(O)[C@H]3C[C@@H]12 [TETRACYCLINE]
IC50 [6]: 6.06 µM

CC1=C(/C=C/C(C)=C/C=C/C(C)=C/C(=O)O)C(C)(C)CCC1 [TRETINOIN]
IC50 [6]: 3 µM
IC50 [11]: 0.18 µM

H-KKLTVWI-OH
Remaining aggregation (% of control) [2]: 61%

H-KTWNAAAGKWTE-OH
Remaining aggregation (% of control) [2]: 81%
